Reference: patent US10265286B2, “Sequelae of cardiopulmonary bypass-induced pulmonary injury” (Vanderbilt University, priority 2016, dated 2019)
Like-named read-outs stand apart in the source and are kept apart here.

Tests used:
[1] = Intravenous citrulline dose escalation pharmacokinetics in children undergoing congenital cardiac surgery; format: in vivo, human
Description: The initial goal was to test the safety and pharmacokinetics of three doses of intravenous citrulline in children undergoing surgical repair of specific congenital heart defects. […] An adverse drop in mean arterial pressure was defined as a greater than a twenty percent decrease from baseline. The baseline postoperative mean arterial blood pressure was calculated as the average of mean arterial blood pressure measurements collected every 5 minutes for the 30 minutes immediately preceding the administration of the postoperative dose or infusion.
The original doses selected were 200, 400, and 600 mg/kg based on data from previous animal studies. The original study design was a 4 arm study using the 3 doses and a placebo control.
After pharmacokinetic modeling, the study design was changed to a bolus dose of 150 mg/kg given in the OR on cardiopulmonary bypass followed 4 hours later by a continuous infusion of 9 mg/kg/hour for 48 hours. Another 9 patients were enrolled. The mean plasma levels of both citrulline and arginine in study patients (+IV citrulline) compared to patients in the observational cohort (−IV citrulline) are depicted in FIGS. 11A-B.
The dose of citrulline was given in the operating room immediately after cannulation and initiation of cardiopulmonary bypass. The overall goal was to achieve a sustained citrulline level of 100 μmol/L or more up to four hours after the initial dose. The four hour time point was selected to allow for the surgical procedure to be completed and the patient to return to the Intensive Care Unit (ICU) postoperatively before further dosing.

[2] = Revised dosing protocol study: duration of respiratory support and cardiovascular parameters (Example 8); format: in vivo, human
Source text: The study in this example was undertaken to test a revised dosing protocol designed to achieve and maintain therapeutic citrulline levels in the face of ultrafiltration and crystalloid replacement. […] The study recruited 22 patients randomized in equal numbers of 11 patients each to placebo and citrulline arms.
Early in the course of the study, it was recognized that one of the two participating centers routinely extubated all patients in the operating room immediately following cessation of cardiopulmonary bypass. This precluded use of the duration of mechanical ventilation as an endpoint. Instead, a post-hoc analysis was applied using the duration of all forms of ventilatory support as a possible endpoint. […] In contrast, contingency table analysis, shown in FIG. 16, did achieve borderline significance. Overall, the results are considered to represent a strong trend.

[3] = Phase IB study: total respiratory support; format: in vivo, human; conditions: invasive and non-invasive
Source text: The analysis of total respiratory support includes any invasive and non-invasive respiratory support required during the study period. The mean total duration of respiratory support in the citrulline treatment group was less than half the duration in the placebo treatment group; the difference was statistically significant (Table 11).

[4] = Phase IB study: plasma nitric oxide (NO metabolite) concentrations; format: in vivo, human; conditions: each of the treatment groups
Description: Twenty two (22) patients were enrolled and treated. Patients received an IV citrulline bolus of 150 mg/kg or placebo at the initiation of CPB, followed by the addition of L-citrulline at a concentration of 200 μmol/L or placebo to the filtration or hemoconcentration replacement fluid used during CPB. A citrulline bolus of 20 mg/kg was administered 30 minutes after decannulation from CPB, immediately followed by a 9-mg/kg/hr continuous infusion of citrulline or placebo for 48 hours. Study participation ended at discharge or at Day 28 whichever came first.
Plasma citrulline concentration levels were the primary PK variable; these were assessed in blood samples collected at 7 perioperative time points. Secondary PK variables were concentrations of arginine and nitric oxide (NO) metabolites in the same sample set. PK values were compared between groups.

[5] = tested on: human vascular endothelial cells; assay: Nitric oxide production by cultured human vascular endothelial cells (FIG. 23); format: cell-based; conditions: cells stimulated with acetylcholine; nitrate/nitrites by Seiver's system
Description: These agents were administered to cultured human vascular endothelial cells stimulated with acetylcholine. Measurement of nitric oxide was through a Seiver's system of nitrate/nitrites.

[6] = Phase IB study: duration of ICU stay; format: in vivo, human
Description: Duration of ICU stay was analyzed once as the total number of postoperative hours spent in the ICU and once as the total number of postoperative hours that a patient required postoperative mechanical ventilator or continuous intravenous inotrope or vasodilator support. The latter combination of parameters represents another surrogate endpoint for ICU stay.

[7] = Phase IB study: postoperative invasive mechanical ventilation; format: in vivo, human; conditions: end of surgery until last extubation, FIG. 20
[8] = Phase IB study: vasoactive medications; format: in vivo, human
Description: The total number of hours on vasoactive medications, including nitroglycerin, nitroprusside and vasopressin, was calculated from the end of surgery until the discontinuation of vasoactive medications or end of study medication (Hour 48), whichever occurred first. Table 14 compares the length of time on vasoactive medications for the citrulline and placebo treatment groups. The overall duration of concomitant vasoactive treatment was shorter in citrulline—than placebo-treated patients, but the difference was not statistically significant. Similar results are shown for the total vasoactive score. However, the patient receiving citrulline did, in fact, show a shorter total duration of vasoactive medication as shown in FIG. 30.

[9] = total postoperative hours in ICU
[10] = end of surgery until discontinuation or Hour 48

NC(=O)NCCCC(N)C(=O)O (stereo not shown) [Citrulline, 2-amino-5-(carbamoylamino)pentanoic acid]
peak citrulline level ([1]; 50 mg/kg IV, Patients 6 and 8): approximately 220 μmol/L | peak citrulline level ([1]; 100 mg/kg IV, Patients 9 & 10): 375 µmol/L | four hour levels ([1]; 150 mg/kg IV bolus): 100 µmol/L | peak citrulline level ([1]; 150 mg/kg IV, Patient 13-16): 660 µmol/L | plasma levels achieved ([1]; IV doses 200, 400, and 600 mg/kg): very high | sustained citrulline level suggested by pharmacokinetic modeling ([1]; bolus 150 mg/kg then 4 hours later continuous infusion 9 mg/kg/hr): approximately 100 μmol/L | half-life ([1]; human, plasma, iv, IV bolus doses in children on CPB): ~1.42 h | concentration at 4 hour ([1]; human, plasma, 50 mg/kg IV, Patients 6 and 8, read-out: 4 hour trough level): 40 µM | concentration at 4 hour ([1]; human, plasma, 100 mg/kg IV, Patients 9 & 10, read-out: 4 hour trough): 50 µM | concentration at 4 hour ([1]; human, plasma, 150 mg/kg IV, Patient 13-16, read-out: 4 hour trough): 80 µM | systolic and diastolic blood pressure versus placebo ([2]; FIG. 18A): No significant change in systolic and diastolic blood pressure | mean arterial pressure versus placebo ([2]; FIG. 18B): No significant change in the mean arterial pressure | patients with Duration of Respiratory Support ≤50 hours ([2]; contingency table, placebo 3): 7 | patients with Duration of Respiratory Support >50 hours ([2]; contingency table, placebo 8): 2 | inotrope scores versus placebo ([2]; particularly from 15 to 18 hours onward following ICU admission (FIG. 17)): markedly better inotrope scores | adverse effects upon hemodynamic parameters ([2]; revised dosing protocol): No adverse effects upon hemodynamic parameters were observed | Total duration of respiratory support, Diff (CI) placebo vs citrulline [3]: 50.7 (5.4, 96.0) hours | Total duration of respiratory support, Median [3]: 23.6 h | Total duration of respiratory support, Range [3]: 0.0 to 100.1 h | Total duration of respiratory support, Mean ± SD ([3]; N = 11): 31.2 ± 28.27 h | plasma nitric oxide levels across the sampling time points [4]: remained more or less unchanged | production of nitric oxide [5]: increases the production of NO | Longest duration of mechanical ventilation, i.v. inotrope use, or vasodilator use, Diff (CI) placebo vs citrulline ([6]; re-intubation excluded): 17.5 (−1.2, 36.2) hours | Longest duration of mechanical ventilation, i.v. inotrope use, or vasodilator use, Mean ± SD ([6]; re-intubation excluded): 14.5 ± 13.99 h | Longest duration of mechanical ventilation, i.v. inotrope use, or vasodilator use, Median ([6]; re-intubation excluded): 15.0 h | Longest duration of mechanical ventilation, i.v. inotrope use, or vasodilator use, Range ([6]; re-intubation excluded): 0.0 to 47.0 h | Longest duration of mechanical ventilation, i.v. inotrope use, or vasodilator use, Diff (CI) placebo vs citrulline ([6]; re-intubation included): 29.9 (−11.0, 70.9) hours | Longest duration of mechanical ventilation, i.v. inotrope use, or vasodilator use, Mean ± SD ([6]; re-intubation included): 14.5 ± 13.99 h | Longest duration of mechanical ventilation, i.v. inotrope use, or vasodilator use, Median ([6]; re-intubation included): 15.0 h | Longest duration of mechanical ventilation, i.v. inotrope use, or vasodilator use, Range ([6]; re-intubation included): 0.0 to 47.0 h | Duration of PICU stay, Diff (CI) placebo vs citrulline [6, 9]: 69.14 (−49.39, 187.67) hours | Duration of PICU stay, Median [6, 9]: 28.52 h | Duration of PICU stay, Range [6, 9]: 20.8 to 72.0 h | Duration of PICU stay, Mean ± SD ([6]; total postoperative hours in ICU, N = 11): 35.94 ± 16.150 h | duration of mechanical ventilation versus placebo (Kaplan-Meier) [7]: reduced duration of mechanical ventilation | Total vasoactive score, Mean ± SD ([8]; N = 11): 5.5 ± 10.62 | Length of time on vasoactive medications, Diff (CI) placebo vs citrulline [8, 10]: 3.5 (−7.0, 14.1) hours | Length of time on vasoactive medications, Median [8, 10]: 1.0 h | Length of time on vasoactive medications, Range [8, 10]: 0.0 to 17.0 h | Length of time on vasoactive medications, Mean ± SD ([8]; end of surgery until discontinuation or Hour 48, N = 11): 6.3 ± 7.18 h | Total vasoactive score, Diff (CI) placebo vs citrulline ([8]; in vivo): 5.2 (−7.7, 18.0) | Total vasoactive score, Median ([8]; in vivo): 1.1 | Total vasoactive score, Range ([8]; in vivo): 0.0-35.5
